Tests used:
SSTR2 [1] = target: T1, SSTR2 (Rattus norvegicus, UniProt P30680); assay: cAMP accumulation in forskolin-stimulated GH4C1/SSTR2 cells (SPA radioimmunoassay); type: cell-based; set-up: expressed in transfected cells; host or cells: GH4C1 rat pituitary tumor cells (GH4C1/SSTR2); conditions: cAMP level, dose response of SRIF agonist + 10 µM peptide 1, forskolin stimulated cells
Text: A primary effect of SRIF upon mammalian cells is the reduction of cyclic adenosine 3',5'-monophosphate(cAMP) levels, via inhibition of adenylyl cyclase. This is the basis of a common assay for SRIF agonists and antagonists, whereby SRIF agonists reduce artificially stimulated cAMP levels, and SRIF antagonists reverse the effect of SRIF. The rat pituitary tumor cell line GH4C1 predominantly expresses SSTR2, and responds to SRIF and to forskolin, a stimulator of adenylate cyclase (see C.M. Eppler, et al., J. Biol. Chem., 267, 15603-15612, 1992, incorporated herein by reference). […] This increases the response to SRIF and provides a greater dynamic range for the measurement of SRIF antagonist activity.
Stimulation of cells. GH4C1/SSTR2 cells, grown in DMEM with 10% bovine serum, are released from a tissue culture dish by incubation for several minutes at 37° C with PBS containing 0.5 mM EDTA. Cells are washed in induction buffer (PBS containing 100 µM IBMX (an inhibitor of cAMP breakdown) and 2 mM CaCl2) at room temperature, and resuspended at 2 x 10^6/mL in induction buffer. Into each well of a 96-well tray are added 50 µL of a 2 X concentration of stimulants in induction buffer. […] Baseline cAMP levels are determined in samples with no added forskolin or SRIF, and each treatment is performed in triplicate.
cAMP assay. […] The 96-well tray is sealed, shaken at room temperature overnight and measured for bound radioligand in a MicroBeta liquid scintillation counter (Wallac, Gaithersburg. MD). The standard curve is determined for each experiment by performing a nonlinear regression (exponential decay) analysis of cpm measured for the cAMP standards vs. their log concentrations, and test sample values are determined by using Prism software (Graphpad Software Inc., San Diego, CA) and are shown in Table II and Figure 1.
The intrinsic activity of an SRIF antagonist is the percent reversal of the SSTR2 activation by SRIF or MK678, wherein 0% is defined by cAMP levels in samples treated with forskolin plus SRIF or MK678 and 100% is the cAMP level measured after treatment with forskolin alone. […]

[2] = target: SRIF receptors expressed in S. cerevisiae (yeast) LY364 cells; assay: cell-based or functional assay
SSTR2 [3] = target: T1, SSTR2; assay: cAMP accumulation in forskolin-stimulated GH4C1/SSTR2 cells (SPA radioimmunoassay); type: cell-based; set-up: expressed in transfected cells; host or cells: GH4C1 rat pituitary tumor cells; conditions: test peptide 2 µM; percent reversal of SSTR2 activation by SRIF or MK678; 0% = forskolin plus agonist, 100% = forskolin alone
Description: This is the basis of a common assay for SRIF agonists and antagonists, whereby SRIF agonists reduce artificially stimulated cAMP levels, and SRIF antagonists reverse the effect of SRIF. […] This increases the response to SRIF and provides a greater dynamic range for the measurement of SRIF antagonist activity.
Stimulation of cells. GH4C1/SSTR2 cells, grown in DMEM with 10% bovine serum, are released from a tissue culture dish by incubation for several minutes at 37° C with PBS containing 0.5 mM EDTA. Cells are washed in induction buffer (PBS containing 100 µM IBMX (an inhibitor of cAMP breakdown) and 2 mM CaCl2) at room temperature, and resuspended at 2 x 10^6/mL in induction buffer. Into each well of a 96-well tray are added 50 µL of a 2 X concentration of stimulants in induction buffer. […] To initiate stimulation of the cells, 50 µL (100,000) cells are added to each well, mixed by shaking 10 seconds on a plate shaker and placed at 37° C for 15 minutes. Stimulation is arrested and cells are lysed by adding 15 µL 0.33 N HCI to each well and incubating the plate for 30 minutes at 37° C. Samples are neutralized by addition of 15 µL 0.25 N NaOH/50 mM Hepes pH 7.4. Baseline cAMP levels are determined in samples with no added forskolin or SRIF, and each treatment is performed in triplicate.
cAMP assay. To measure accumulated cAMP in the samples, a radioimmunoassay is employed. The scintillation proximity assay (SPA, Amersham, Arlington Heights, IL) allows the rapid measurement of ^125I cAMP bound to a specific antibody without separating bound radioligand from free radioligand. Each of the following reagents (15 µL) are added per well in a 96-well tray: supernatants from the cell stimulation; ^125I cAMP; SPA beads conjugated to monkey anti-rabbit IgG antibodies; and rabbit anti-cAMP antibodies. For the standard curve, known amounts of cAMP (0.2 - 12.8 pmol) are added in place of cell supernatants. The 96-well tray is sealed, shaken at room temperature overnight and measured for bound radioligand in a MicroBeta liquid scintillation counter (Wallac, Gaithersburg. MD).
The intrinsic activity of an SRIF antagonist is the percent reversal of the SSTR2 activation by SRIF or MK678, wherein 0% is defined by cAMP levels in samples treated with forskolin plus SRIF or MK678 and 100% is the cAMP level measured after treatment with forskolin alone. Therefore, increased intrinsic activity of a test compound indicates increased antagonist activity of said test compound.
An inverse agonist is a compound that is not only a pure antagonist (i.e. lacking agonist activity), but also blocks the constitutive activity of an unoccupied receptor. One indication of inverse agonist activity is the ability of a SRIF antagonist to increase cAMP levels in the absence of added SRIF.

SRIF receptors = target: T2, SRIF receptors (Rattus norvegicus, UniProt P30680); assay: Yeast bioassay for SRIF antagonist activity (zone of growth inhibition of LY364 cells growing in response to SRIF); type: cell-based; conditions: Table III; diameter of zone of growth inhibition; 10 µL of 5 mg/mL on filter disk; S-14 10 nM
T2 construct: expressed in transfected cells; host or cells: Saccharomyces cerevisiae strain LY364
Description: Agar plates containing LY364 cells that are growing in the presence of added SRIF are the basis for a sensitive SRIF antagonist assay, whereby zones of growth inhibition result from the addition of SRIF antagonists to the surface of the agar plate (see L.A. Price, et al., Molecular and Cellular Biology, 15, 6188-6195, 1995, incorporated herein by reference).
In this assay, LY364 cells are grown overnight in 2 mL of synthetic complete(SC) medium (3.4 g/L YNB without amino acids and ammonium sulfate, 10 g/L ammonium sulfate and 1.4 g/L CSM-ura-trp) with glucose (2%) and without uracil and tryptophan. These cells are washed and cultured for 4 to 8 hours in 5 mL of SC medium with lactate (3%) and without uracil and tryptophan, and finally grown overnight in 5 mL of SC medium with galactose (2%) and without uracil and tryptophan. Molten (50° C) SC agar medium with galactose (2%) and without uracil, tryptophan and histidine is adjusted to pH 6.8 with KOH, mixed with 2 x 10^4 cells/mL and SRIF (S-14, 10 nM) and poured into square (20 x 20 cm) petri dishes. Sterile filter disks are placed on the surface of the agar, and saturated with 10 µL of water or DMSO containing 5 mg/mL test peptides. After three days, the plates display a uniform cloudy background of […] cells growing in response to the added SRIF. […] This zone is quantified by measuring its diameter (mm), which varies according to the potency of the SRIF antagonist. Those peptides or mixtures of peptides displaying the largest zones of inhibition are further characterized.
Values are compared among samples in the same experiment, as the degree of yeast growth varies somewhat from assay to assay. For the first five sample types, in which progressively less complex mixtures of peptides are found, this assay is the primary determining factor in choosing which samples form the basis of subsequent syntheses.
Plates are read after 3 days. Samples shown in Table I in bold type are chosen for further synthesis. In Table I, all amino acids are D-amino acids and dashes represent undefined amino acid residues.

T1 sequence (P30680 whole entry): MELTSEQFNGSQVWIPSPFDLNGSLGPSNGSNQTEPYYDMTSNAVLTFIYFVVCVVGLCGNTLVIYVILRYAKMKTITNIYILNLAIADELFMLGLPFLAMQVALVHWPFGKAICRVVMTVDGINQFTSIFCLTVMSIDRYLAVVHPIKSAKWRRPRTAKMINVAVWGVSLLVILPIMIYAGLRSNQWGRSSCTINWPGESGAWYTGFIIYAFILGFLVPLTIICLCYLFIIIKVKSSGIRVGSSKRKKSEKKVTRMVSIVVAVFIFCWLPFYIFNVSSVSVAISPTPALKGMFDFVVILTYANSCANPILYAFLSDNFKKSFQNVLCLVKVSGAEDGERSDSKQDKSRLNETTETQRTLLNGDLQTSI
T2 sequence (P30680 whole entry): as above

Compound | Inhibition Zone (mm), yeast bioassay for SRIF antagonist activity (LY364 cells growing on 10 nM S-14; 10 µL of 5 mg/mL peptide on a filter disk) [2] | cAMP Assay Intrinsic activity (SSTR2 [3]) | Yeast Assay (mm) (SRIF receptors) | other results
CC(C)[C@@H]1NC(=O)[C@H](CCCCN)NC(=O)[C@@H](Cc2c[nH]c3ccccc23)NC(=O)[C@H](Cc2ccc(O)cc2)NC(=O)[C@H](C)N(C)C(=O)[C@H](Cc2ccccc2)NC1=O [MK678] | – | – | – | Maximum (SSTR2 [1]): 8.705; Minimum (SSTR2 [1]): 2.775
Ac-His-Phe-Ile-Arg-Trp-Ile-NH2 (all D), Seq Id No. 21 (peptide) | 16 mm | – | – | –
Ac-His-Phe-Ile-Arg-Trp-Gly-NH2 (D-amino acids) (peptide) | 13 mm | – | – | –
Ac-His-Phe-Ile-Arg-Trp-Trp-NH2 (all D), Seq Id No. 25 (peptide) | 16 mm | – | – | –
Ac-His-Phe-Ile-Arg-Trp-Ala-NH2 (all D), Seq Id No. 22 (peptide) | 15 mm | – | – | –
Ac-His-Phe-Ile-Arg-Trp-Gln-NH2 (all D), Seq Id No. 26 (peptide) | 16 mm | – | – | –
a-f-i-r-w-f [Peptide 2] | – | 13.0% | none | –
Ac-His-Phe-Ile-Arg-Trp-Asn-NH2 (all D), Seq Id No. 23 (peptide) | 15 mm | – | – | –
h-a-i-r-w-f [Peptide 3] | – | 9.33% | none | –
Ac-His-Phe-Ile-Arg-Trp-Leu-NH2 (all D), Seq Id No. 18 (peptide) | 15 mm | – | – | –
Peptide 1, Ac-D-His-D-Phe-D-Ile-D-Arg-D-Trp-D-Phe-NH2 | 18 mm | – | – | –
Ac-His-Phe-Ile-Arg-Trp-Thr-NH2 (all D), Seq Id No. 19 (peptide) | 14 mm | – | – | –
Ac-His-Phe-Ile-Arg-Trp-Met-NH2 (all D), Seq Id No. 24 (peptide) | 18 mm | – | – | –
Ac-His-Phe-Ile-Arg-Trp-Tyr-NH2 (all D), Seq Id No. 20 (peptide) | 16 mm | – | – | –

More lines, main results first:

Inhibition Zone (mm), yeast bioassay for SRIF antagonist activity (LY364 cells growing on 10 nM S-14; 10 µL of 5 mg/mL peptide on a filter disk) [2] | cAMP Assay Intrinsic activity (SSTR2 [3]) | Yeast Assay (mm) (SRIF receptors) | Compound | other results
– | 10.8% | none | f-r-i-r-w-f [Peptide 25] | –
– | 54.7% | 18 mm | h-w-i-r-w-f [Peptide 21] | –
– | 56.5% | 18 mm | h-y-i-r-w-f [Peptide 20] | –
– | 13.4% | 9 mm | h-f-i-r-a-f [Peptide 6] | –
– | 27.4% | none | w-h-i-r-w-f [Peptide 22] | –
– | 33.3% | 9 mm | k-y-i-r-w-f [Peptide 19] | –
– | -7.2% | none | f-i-r-w-f [Peptide 7] | –
– | 5.64% | none | w-y-i-r-w-f [Peptide 23] | –
– | 43.6% | 17 mm | h-f-i-R-w-f [Peptide 16] | –
– | 65.2% | none | f-h-i-r-w-f [Peptide 24] | –
– | 50.2% | 19 mm | h-f-i-r-W-f [Peptide 17] | –
– | 26.2% | 15 mm | H-f-i-r-w-f [Peptide 13] | –
– | 25.3% | 14 mm | h-f-i-w-f [Peptide 10] | –
– | 41.8% | 16 mm | h-f-a-r-w-f [Peptide 4] | –
– | 29.6% | 16 mm | h-F-i-r-w-f [Peptide 14] | –

Reference: EP0863156A1, “Peptides useful as somatostatin antagonists” (American Cyanamid Company, priority 1997, dated 1998)
